The structures appear in SMILES notation. Values after ≈ are worked out from the molar mass of the structure shown. Like-named read-outs stand apart in the source and are kept apart here. Where only a bound is given, the exact number is not on record here.

This is an account of results in patent US4837215A, “Penem derivatives” (Farmitalia Carlo Erba, priority 1985, dated 1989).

What all share (assay type): cell-based
In test [1] the test system is Staphylococcus aureus Smith ATCC 13709. Nature of the test: Antibacterial in vitro activity (MIC), Staphylococcus aureus Smith ATCC 13709. Conditions: ATCC13709. The text has this: (§1) Comparison between the antibacterial in vitro
(§2) activity (MIC, μg/ml) of compounds (1)
(§3) and (31) and a reference drug: Moxalactam

Test [2] has as its system Staphylococcus aureus 209 P. Nature of the test: Antibacterial in vitro activity (MIC), Staphylococcus aureus 209 P.
From the text: as §1, §2, §3

Test [3] concerns Streptococcus pyrogenes ATCC 12384. Briefly: Antibacterial in vitro activity (MIC), Streptococcus pyrogenes ATCC 12384. Conditions: ATCC12384.
From the text: as §1, §2, §3

In test [4] the test system is Klebsiella aerogenes 1082E (β-lact.+). Nature of the test: Antibacterial in vitro activity (MIC), Klebsiella aerogenes 1082E (β-lact.+).
From the text: as §1, §2, §3

Test [5] has as its system Enterobacter cloacae P 99 (β-lact.+). Briefly: Antibacterial in vitro activity (MIC), Enterobacter cloacae P 99 (β-lact.+).
From the text: as §1, §2, §3

For test [6], the system named is Escherichia coli B Cef. R (β-lact.+). Briefly: Antibacterial in vitro activity (MIC), Escherichia coli B Cef. R (β-lact.+).
From the text: as §1, §2, §3

In test [7] the test system is Escherichia coli 026/B6 Cef R. Briefly: Antibacterial in vitro activity (MIC), Escherichia coli 026/B6 Cef R. Conditions: 026/B6CEFR.
From the text: as §1, §2, §3

In test [8] the test system is Shigella flexneri ATCC 11836. Nature of the test: Antibacterial in vitro activity (MIC), Shigella flexneri ATCC 11836. Conditions: ATCC11836.
From the text: as §1, §2, §3

Test [9] has as its system Citrobacter freundii ATCC 8090. Nature of the test: Antibacterial in vitro activity (MIC), Citrobacter freundii ATCC 8090. Conditions: ATCC8090.
From the text: as §1, §2, §3

For test [10], the system named is Pseudomonas aeruginosa (6 strains). Briefly: Antibacterial in vitro activity (MIC), Pseudomonas aeruginosa (6 strains).
From the text: as §1, §2, §3

For the next test, the system named is Acinobacter. Briefly: Antibacterial in vitro activity (MIC), Acinobacter.
From the text: as §1, §2, §3

The mark [11] stands for this setting: Klebsiella aerogenes 1082E (β-lact.+), read-out: MIC.
[12] abbreviates: Enterobacter cloacae P 99 (β-lact.+), read-out: MIC.
The mark [13] stands for this setting: Escherichia coli B Cef. R (β-lact.+), read-out: MIC.

By MIC is commonly meant the lowest concentration found to suppress growth. As to `C[C@@H](O)[C@H]1C(=O)N2C(C(=O)[O-])=C(Oc3ccc(C[n+]4ccccc4)cc3)S[C@H]12` [Compound 31], the minimum inhibitory concentration (MIC) in [1] was 0.045 mg/L (≈ 0.113 µM); in test [2], 0.022 mg/L (≈ 0.0552 µM); in [3], 0.011 mg/L (≈ 0.0276 µM); in test [4] (Klebsiella aerogenes), 1.56 mg/L (≈ 3.92 µM); in [5] (Enterobacter cloacae), 1.56 mg/L (≈ 3.92 µM); in test [6] (Escherichia coli), 1.56 mg/L (≈ 3.92 µM). Besides, the results for the minimum inhibitory concentration (MIC) in [7], in [8] and in test [9] (Citrobacter freundii) were 0.78 mg/L (≈ 1.96 µM), 1.56 mg/L (≈ 3.92 µM) and 1.56 mg/L (≈ 3.92 µM), respectively.
Turning to `C[C@@H](O)[C@H]1C(=O)N2C(C(=O)[O-])=C(SCC[n+]3ccccc3)S[C@H]12` [Compound 1, (5R,6S)-6-[(1R)-hydroxyethyl]-2-(2-pyridinioethylthio) penem-3-carboxylate], the MIC in test [1] is 0.222 mg/L (≈ 0.63 µM); in [2], 0.011 mg/L (≈ 0.0312 µM); in test [3] it was ≤ 0.005 mg/L; in [4] (setting [11]), 0.78 mg/L (≈ 2.21 µM); in test [5] (setting [12]) it was 0.78 mg/L (≈ 2.21 µM); in test [6] (setting [13]) it was 0.78 mg/L (≈ 2.21 µM). In addition, the MIC in test [7] worked out at 0.39 mg/L (≈ 1.11 µM); in test [8], 0.39 mg/L (≈ 1.11 µM); in test [9] (Citrobacter freundii ATCC 8090, read-out: MIC), 0.78 mg/L (≈ 2.21 µM); in [10], 9.92 mg/L (≈ 28.1 µM); in the test on Acinobacter, 0.78 mg/L (≈ 2.21 µM).
For `CO[C@@]1(NC(=O)C(C(=O)O)c2ccc(O)cc2)C(=O)N2C(C(=O)O)=C(CSc3nnnn3C)CO[C@@H]21` (stereo partly shown) [Moxalactam, reference compound], the MIC was determined as 0.31 mg/L (≈ 0.596 µM) in [1]; 0.31 mg/L (≈ 0.596 µM) in test [2]; 2.5 mg/L (≈ 4.8 µM) in [3]; 0.78 mg/L (≈ 1.5 µM) in [4] (setting [11]); 3.12 mg/L (≈ 5.99 µM) in [5] (setting [12]); 2.5 mg/L (≈ 4.8 µM) in [6] (setting [13]). Further, the MIC worked out at 2.5 mg/L (≈ 4.8 µM) in [7] and 0.15 mg/L (≈ 0.288 µM) in [8].
